From patent US20050131061A1, “Angiogenesis inhibitors” (Mercian Corporation, priority 2002, published 2005)

How the values were obtained:
[1] = Solubility (physicochemical properties)
Description: • (1) Form: white powder • (2) Molecular formula: C24H34O3 • (Measurement of C24H35O3 by high resolution FAB mass spectrometry Calculated m/z: 371.2586 (M+H)^+, Found m/z: 371.2580) • (3) Specific optical rotation: [α]D^26−194° (c 0.1, methanol) • (4) Melting point: 55 to 58° C. • (5) Infrared absorption spectrum: The results obtained by measurement by the KBr method are as shown in FIG. 1. […] The chemical shift, multiplicity and spin coupling constant of each signal are shown in Table 1. • (9) ^13C-NMR spectrum: Measurement was performed by dissolving the substance in heavy methanol and using tetramethylsilane as an internal standard. 2. Physicochemical Properties of the Substance F-1491B • (1) Form: white powder • (2) Molecular formula: C23H32O3 • (Measurement of C23H33O3 by high resolution FAB mass spectrometry Calculated m/z: 357.2430 (M+H)^+, Found m/z: 357.2463), • (3) Specific optical rotation: [α]D^26-222° (c 0.1, methanol) • (4) Melting point: 53 to 56° C. • (5) Infrared absorption spectrum: The results obtained by measurement by the KBr method are as shown in FIG. 2. […] The chemical shift, multiplicity, and spin coupling constant of each signal are shown in Table 1. • (9) ^13C-NMR spectrum: Measurement was performed by dissolving the substance in heavy methanol and using tetramethylsilane as an internal standard. 3. Physicochemical Properties of the Substance F-1491C • (1) Form: white powder • (2) Molecular formula: C24H35O3Cl • (Measurement of C24H35O3Cl by high resolution ESI mass spectrometry Calculated m/z: 429.2172 (M+Na)^+, Found m/z: 429.2204) • (3) Ultraviolet absorption spectrum (measured in methanol): […]

[2] = test system: HT1080 (fibrosarcoma); test: Toxicity to cultivated human cancer cells, MTT growth inhibition; format: cell-based; details: 72 hours
Description: (§1) Note that the tests were performed as follows. Various kinds of human cancer cells (K562 (leukemia), H226 (lung cancer), DLD-1 (prostate cancer) and HT1080 (fibrosarcoma)) were suspended in RPMI1640 medium or DMEM medium containing 10% fetal calf serum and each adjusted to 5×10^3 cells/well, and 0.1 ml of this was seeded on a 96-well microplate. At the same time, a suitable amount of each of the substances F-1491 (substances F-1491A to F-1491H) was added and the resultant was cultivated at 37° C. for 72 hours in an atmosphere containing 5% CO2. Further, 10 μl of 0.5% MTT (3-[4,5-dimethylthiazol-2-yl]2,5-[…] tetrazolium bromide) was added and the resultant was cultivated for 4 hours. After the cultivation, 0.1 ml of 10% SDS-0.01N hydrochloric acid was added and absorbance at 570 nm was measured to determine 50% growth inhibition concentration.

[3] = test system: DLD-1 (prostate cancer); test: as above; format: cell-based; details: DLD-1 cells, 72 hours
Description: as §1

[4] = test system: H226 (lung cancer); test: as above; format: cell-based; details: 72 hours
Description: as §1

[5] = test system: K562 (leukemia); test: as above; format: cell-based; details: 72 hours
Description: as §1

[6] = test system: human umbilical cord vein endothelial cells; test: Inhibition of proliferation of human umbilical cord vein endothelial cells (3H-thymidine incorporation); format: cell-based; details: bFGF 10 μg/l, 48 hours + 8 hours 3H-thymidine
Description: That is, 0.1 ml of human umbilical cord vein endothelial cells (Cell Systems Corporation) adjusted to 2×10^3 cells/well in MCDB131 medium (Chlorella Industry Co., Ltd.) containing 10 μg/l basic fibroblast cell growth factor and 10% fetal calf serum is seeded on a collagen-coated 96-well microplate (Sumitomo Bakelite Co., Ltd.) and at the same time a suitable amount of sample is added. The resultant is cultivated in an atmosphere containing 5% CO2 at 37° C. for 48 hours. Further, 1 μCi/well ^3H-tymidine is added and cultivation is performed for 8 hours. Then, the cells are collected using a cell harvester and the radioactivity incorporated into cells is measured using a scintillation counter.
When the sample contains an active substance for inhibiting the growth of angioendothelial cells, the incorporation of radioactivity into the cells is suppressed. Further, an effective concentration range of the sample is obtained from the change in radioactivity in the cells depending on the concentration of the sample.

[7] = in methanol, chloroform and dimethyl sulfoxide

| Structure (SMILES) | Solubility [1, 7] | Solubility ([1]; in water) | 50% growth inhibition concentration [2] | 50% growth inhibition concentration [3] | 50% growth inhibition concentration [4] | 50% growth inhibition concentration [5] | 50% growth inhibition concentration [6] |
| --- | --- | --- | --- | --- | --- | --- | --- |
| CC=C(C)C1C(C=CC=C(C)C(=O)CC)C2CC3OC3(C)CC2C2OC21C (centres unmarked) [F-1491A] | Soluble | hardly soluble | >100 mg/L | >100 mg/L | >100 mg/L | 39 mg/L | 2.2 mg/L |
| CC=C(C)C1C(C=CC=C(C)C(C)=O)C2CC3OC3(C)CC2C2OC21C (centres unmarked) [F-1491B] | Soluble | hardly soluble | >100 mg/L | >100 mg/L | >100 mg/L | 36 mg/L | 3.4 mg/L |
| CC=C(C)C1C(C=CC=C(C)C(=O)CC)C2CC(Cl)C(C)(O)CC2C2OC21C (centres unmarked) [F-1491C] |  |  | >100 mg/L | >100 mg/L | >100 mg/L | 52 mg/L | 7.4 mg/L |
| CC=C(C)C1C(C=CC=C(C)C(C)=O)C2CC(Cl)C(C)(O)CC2C2OC21C (centres unmarked) [F-1491D] |  |  | >100 mg/L | >100 mg/L | >100 mg/L | 80 mg/L | 4.6 mg/L |
| CC=C(C)C1C(C=CC=C(C)C(=O)CC)C2CCC(C)(O)CC2C2OC21C (centres unmarked) [F-1491E] |  |  | >100 mg/L | >100 mg/L | >100 mg/L | 68 mg/L | 3.2 mg/L |
| CC=C(C)C1C(C=CC=C(C)C(C)=O)C2CCC(C)(O)CC2C2OC21C (centres unmarked) [F-1491F] |  |  | >100 mg/L | >100 mg/L | >100 mg/L | 72 mg/L | 9.3 mg/L |
| CC=C(C)C1C(C=CC=C(C)C(C)=O)C2CC(OC)C(C)(O)CC2C2OC21C (centres unmarked) [F-1491G] |  |  | >100 mg/L | >100 mg/L | >100 mg/L | 95 mg/L | 7.7 mg/L |
| CC=C(C)C1C(C=CC=C(C)C(C)=O)C2CC(O)C(C)(O)CC2C2OC21C (centres unmarked) [F-1491H] |  |  | >100 mg/L | >100 mg/L | >100 mg/L | 61 mg/L | 5.6 mg/L |
